Measured values published in doi:10.1101/2024.08.19.608619, “Discovery of potent SARS-CoV-2 nsp3 macrodomain inhibitors uncovers lack of translation to cellular antiviral response” (bioRxiv, 2024).

Tests used:
[1] = molecular target: T1, PDE3A (h) (Homo sapiens, UniProt Q14432); assay: In vitro CEREP profiling, PDE3A (h); type: biochemical; conditions: test compound concentration 10 uM; Enzyme and Cell-based assays
T1 construct: purchased Eurofins Cerep (SafetyScreen44), recognised from the panel format
T1 sequence (Q14432 whole entry): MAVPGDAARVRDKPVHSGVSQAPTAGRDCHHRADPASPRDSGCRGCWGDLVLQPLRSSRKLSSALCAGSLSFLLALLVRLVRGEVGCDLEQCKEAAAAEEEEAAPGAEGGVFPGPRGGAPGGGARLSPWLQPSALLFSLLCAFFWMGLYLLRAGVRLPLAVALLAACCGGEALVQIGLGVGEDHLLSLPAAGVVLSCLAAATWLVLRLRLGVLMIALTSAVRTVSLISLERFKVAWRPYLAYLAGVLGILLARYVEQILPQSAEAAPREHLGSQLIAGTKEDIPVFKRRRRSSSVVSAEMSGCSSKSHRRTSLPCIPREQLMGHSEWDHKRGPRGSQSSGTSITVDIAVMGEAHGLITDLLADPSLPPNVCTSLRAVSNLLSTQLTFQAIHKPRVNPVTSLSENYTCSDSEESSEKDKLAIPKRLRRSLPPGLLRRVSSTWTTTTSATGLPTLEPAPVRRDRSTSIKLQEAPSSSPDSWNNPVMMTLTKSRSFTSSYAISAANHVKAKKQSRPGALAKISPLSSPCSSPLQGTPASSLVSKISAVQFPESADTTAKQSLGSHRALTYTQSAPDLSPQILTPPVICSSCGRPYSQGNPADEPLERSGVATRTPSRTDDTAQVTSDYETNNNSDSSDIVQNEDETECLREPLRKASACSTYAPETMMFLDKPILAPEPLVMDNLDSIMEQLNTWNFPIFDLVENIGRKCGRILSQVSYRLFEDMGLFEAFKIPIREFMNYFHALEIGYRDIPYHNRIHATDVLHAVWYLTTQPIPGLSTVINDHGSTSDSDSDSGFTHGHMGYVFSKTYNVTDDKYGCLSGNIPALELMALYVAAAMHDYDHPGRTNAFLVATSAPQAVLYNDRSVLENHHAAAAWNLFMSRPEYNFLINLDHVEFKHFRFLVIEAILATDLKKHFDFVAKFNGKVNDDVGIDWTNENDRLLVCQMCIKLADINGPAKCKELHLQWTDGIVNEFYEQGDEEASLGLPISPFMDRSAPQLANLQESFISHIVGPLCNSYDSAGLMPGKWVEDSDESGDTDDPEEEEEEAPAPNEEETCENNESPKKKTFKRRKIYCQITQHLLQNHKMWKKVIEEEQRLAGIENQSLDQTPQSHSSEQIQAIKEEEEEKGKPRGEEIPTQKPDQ
From the text: (§1) Supplement media-1.zip/Safety_Panel_Profile.csv, table | column: perc_inhibition

[2] = molecular target: T2, delta (DOP) (h) (Homo sapiens, UniProt P41143); assay: In vitro CEREP profiling, delta (DOP) (h) (agonist radioligand); type: binding; conditions: test compound concentration 10 uM
T2 construct: purchased Eurofins Cerep (SafetyScreen44), recognised from the panel format
T2 sequence (P41143 whole entry): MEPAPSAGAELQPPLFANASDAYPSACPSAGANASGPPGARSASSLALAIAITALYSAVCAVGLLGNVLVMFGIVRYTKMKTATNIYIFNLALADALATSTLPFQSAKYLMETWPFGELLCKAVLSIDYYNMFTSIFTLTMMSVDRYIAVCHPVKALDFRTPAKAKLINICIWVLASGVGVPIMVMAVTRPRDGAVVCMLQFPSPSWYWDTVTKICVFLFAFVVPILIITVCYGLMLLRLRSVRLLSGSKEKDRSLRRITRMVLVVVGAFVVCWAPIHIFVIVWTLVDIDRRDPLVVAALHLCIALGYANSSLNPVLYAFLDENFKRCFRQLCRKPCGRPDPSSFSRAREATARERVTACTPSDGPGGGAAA
From the text: as §1

[3] = In vitro human hepatocyte stability; type: in vitro ADME
From the text: Supplement media-1.zip/Hepatocyte_Stability.csv, table | column: clint; t_half

[4] = in vitro; conditions: human, hela-ace2 cells, 50.0
[5] = molecular target: T3, D2S (h) (Homo sapiens, UniProt P14416); assay: In vitro CEREP profiling, D2S (h) (agonist radioligand); type: binding; conditions: test compound 10 uM
T3 construct: purchased Eurofins Cerep (SafetyScreen44), recognised from the panel format
T3 sequence (P14416 1-414 isoform P14416-2): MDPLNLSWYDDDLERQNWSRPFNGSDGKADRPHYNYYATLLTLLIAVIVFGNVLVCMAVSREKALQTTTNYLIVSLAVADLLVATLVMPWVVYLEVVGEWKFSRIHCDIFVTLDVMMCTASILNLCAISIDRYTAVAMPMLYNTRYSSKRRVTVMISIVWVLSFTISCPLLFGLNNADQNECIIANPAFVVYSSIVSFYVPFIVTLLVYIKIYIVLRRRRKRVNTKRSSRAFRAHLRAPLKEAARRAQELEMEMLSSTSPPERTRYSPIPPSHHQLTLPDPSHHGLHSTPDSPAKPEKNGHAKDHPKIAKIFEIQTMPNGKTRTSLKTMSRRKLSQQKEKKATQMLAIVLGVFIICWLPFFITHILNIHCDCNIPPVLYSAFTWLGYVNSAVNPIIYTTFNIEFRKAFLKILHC
From the text: as §1

[6] = molecular target: T4, alpha1A (h) (Homo sapiens, UniProt P35348); assay: In vitro CEREP profiling, alpha1A (h) (antagonist radioligand); type: binding; conditions: test compound 10 uM
T4 construct: purchased Eurofins Cerep (SafetyScreen44), recognised from the panel format
T4 sequence (P35348 1-466): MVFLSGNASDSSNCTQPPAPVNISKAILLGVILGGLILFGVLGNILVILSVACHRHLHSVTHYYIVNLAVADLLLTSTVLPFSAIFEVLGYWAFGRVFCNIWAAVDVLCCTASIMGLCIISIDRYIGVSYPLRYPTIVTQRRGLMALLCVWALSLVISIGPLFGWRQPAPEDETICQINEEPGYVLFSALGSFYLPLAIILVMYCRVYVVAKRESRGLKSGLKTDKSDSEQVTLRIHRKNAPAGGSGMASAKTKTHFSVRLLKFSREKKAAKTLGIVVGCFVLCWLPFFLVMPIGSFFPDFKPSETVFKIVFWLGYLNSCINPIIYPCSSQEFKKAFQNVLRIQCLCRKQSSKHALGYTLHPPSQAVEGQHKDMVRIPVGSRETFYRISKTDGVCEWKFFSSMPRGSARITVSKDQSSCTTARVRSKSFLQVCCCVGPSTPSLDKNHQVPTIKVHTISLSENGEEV
From the text: as §1

[7] = molecular target: T5, D1 (h) (Homo sapiens, UniProt P21728); assay: In vitro CEREP profiling, D1 (h) (antagonist radioligand); type: binding; conditions: test compound 10 uM
T5 construct: purchased Eurofins Cerep (SafetyScreen44), recognised from the panel format
T5 sequence (P21728 whole entry): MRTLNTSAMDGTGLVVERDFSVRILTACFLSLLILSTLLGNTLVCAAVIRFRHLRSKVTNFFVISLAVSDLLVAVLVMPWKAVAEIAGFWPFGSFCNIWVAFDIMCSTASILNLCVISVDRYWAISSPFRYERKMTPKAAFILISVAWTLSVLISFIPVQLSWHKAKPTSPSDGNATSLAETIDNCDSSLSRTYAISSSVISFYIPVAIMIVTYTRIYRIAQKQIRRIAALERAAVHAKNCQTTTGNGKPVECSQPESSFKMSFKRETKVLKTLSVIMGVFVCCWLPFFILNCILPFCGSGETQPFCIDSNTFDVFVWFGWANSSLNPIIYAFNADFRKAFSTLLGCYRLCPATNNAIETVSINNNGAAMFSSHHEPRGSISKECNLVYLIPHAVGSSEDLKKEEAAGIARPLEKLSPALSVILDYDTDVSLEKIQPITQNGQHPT
From the text: as §1

[8] = system: Na+ channel (site 2); assay: In vitro CEREP profiling, Na+ channel (site 2) (antagonist radioligand); type: binding; conditions: test compound concentration 10 uM
From the text: as §1

[9] = molecular target: T6, H2 (h) (Homo sapiens, UniProt P25021); assay: In vitro CEREP profiling, H2 (h) (antagonist radioligand); type: binding; conditions: test compound concentration 10 uM
T6 construct: purchased Eurofins Cerep (SafetyScreen44), recognised from the panel format
T6 sequence (P25021 whole entry): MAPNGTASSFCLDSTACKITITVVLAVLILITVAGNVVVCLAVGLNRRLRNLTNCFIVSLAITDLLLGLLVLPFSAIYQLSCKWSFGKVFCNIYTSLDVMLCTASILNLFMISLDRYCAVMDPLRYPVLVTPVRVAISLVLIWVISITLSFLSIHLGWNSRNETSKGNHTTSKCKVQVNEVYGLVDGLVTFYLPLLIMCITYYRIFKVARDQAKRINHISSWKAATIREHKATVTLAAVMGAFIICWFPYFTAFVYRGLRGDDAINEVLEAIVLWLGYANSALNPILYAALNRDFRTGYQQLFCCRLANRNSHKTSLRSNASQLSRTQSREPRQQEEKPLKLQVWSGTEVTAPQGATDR
From the text: as §1

[10] = molecular target: hERG (Homo sapiens, UniProt Q12809); assay: In vitro hERG cardiotoxocity
hERG, sequence (Q12809 whole entry): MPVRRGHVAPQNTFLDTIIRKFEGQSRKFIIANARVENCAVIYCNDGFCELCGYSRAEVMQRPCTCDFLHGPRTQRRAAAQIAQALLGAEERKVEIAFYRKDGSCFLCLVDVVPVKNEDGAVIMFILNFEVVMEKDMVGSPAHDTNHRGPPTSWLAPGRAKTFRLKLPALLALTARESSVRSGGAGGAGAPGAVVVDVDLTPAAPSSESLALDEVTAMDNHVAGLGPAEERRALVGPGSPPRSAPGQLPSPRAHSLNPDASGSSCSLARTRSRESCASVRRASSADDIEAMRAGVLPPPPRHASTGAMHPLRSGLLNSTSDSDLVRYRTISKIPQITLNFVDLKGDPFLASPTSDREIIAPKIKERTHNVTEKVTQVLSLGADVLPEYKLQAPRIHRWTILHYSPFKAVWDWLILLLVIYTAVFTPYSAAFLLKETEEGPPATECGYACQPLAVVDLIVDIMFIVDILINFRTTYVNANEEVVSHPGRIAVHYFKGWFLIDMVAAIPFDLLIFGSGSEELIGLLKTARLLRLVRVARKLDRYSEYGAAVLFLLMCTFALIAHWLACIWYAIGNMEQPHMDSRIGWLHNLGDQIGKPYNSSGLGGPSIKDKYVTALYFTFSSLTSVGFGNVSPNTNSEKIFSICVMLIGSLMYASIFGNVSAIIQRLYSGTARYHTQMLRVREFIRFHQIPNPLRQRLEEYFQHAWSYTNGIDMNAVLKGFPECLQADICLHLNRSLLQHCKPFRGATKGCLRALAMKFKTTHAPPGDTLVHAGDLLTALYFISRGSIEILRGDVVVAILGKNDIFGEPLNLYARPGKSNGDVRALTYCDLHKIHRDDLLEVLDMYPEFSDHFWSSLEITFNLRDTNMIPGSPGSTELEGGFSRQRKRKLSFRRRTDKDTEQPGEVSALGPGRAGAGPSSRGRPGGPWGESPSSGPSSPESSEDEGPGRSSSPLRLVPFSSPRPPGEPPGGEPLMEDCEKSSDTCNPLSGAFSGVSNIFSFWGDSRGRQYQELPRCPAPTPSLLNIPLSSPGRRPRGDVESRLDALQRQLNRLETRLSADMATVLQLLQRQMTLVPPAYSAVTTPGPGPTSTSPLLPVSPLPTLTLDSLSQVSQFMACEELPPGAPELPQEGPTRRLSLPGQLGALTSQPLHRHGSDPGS
From the text: Supplement media-1.zip/Cardiotoxicity.csv, table | column: ic50; perc_inhibition_top_conc

[11] = system: NMDA; assay: In vitro CEREP profiling, NMDA (antagonist radioligand); type: binding; conditions: test compound 10 uM
From the text: as §1

[12] = molecular target: T7, beta2 (h) (Homo sapiens, UniProt P07550); assay: In vitro CEREP profiling, beta2 (h) (antagonist radioligand); type: binding; conditions: test compound 10 uM
T7 construct: purchased Eurofins Cerep (SafetyScreen44), recognised from the panel format
From the text: as §1

[13] = molecular target: T8, human CHRM2 (M2) (Homo sapiens, UniProt P08172); assay: Eurofins CEREP panel, M2; type: binding; conditions: M2 (h) (antagonist radioligand); test compound concentration 10 uM
T8 construct: purchased Eurofins Cerep (SafetyScreen44), recognised from the panel format
T8 sequence (P08172 1-466): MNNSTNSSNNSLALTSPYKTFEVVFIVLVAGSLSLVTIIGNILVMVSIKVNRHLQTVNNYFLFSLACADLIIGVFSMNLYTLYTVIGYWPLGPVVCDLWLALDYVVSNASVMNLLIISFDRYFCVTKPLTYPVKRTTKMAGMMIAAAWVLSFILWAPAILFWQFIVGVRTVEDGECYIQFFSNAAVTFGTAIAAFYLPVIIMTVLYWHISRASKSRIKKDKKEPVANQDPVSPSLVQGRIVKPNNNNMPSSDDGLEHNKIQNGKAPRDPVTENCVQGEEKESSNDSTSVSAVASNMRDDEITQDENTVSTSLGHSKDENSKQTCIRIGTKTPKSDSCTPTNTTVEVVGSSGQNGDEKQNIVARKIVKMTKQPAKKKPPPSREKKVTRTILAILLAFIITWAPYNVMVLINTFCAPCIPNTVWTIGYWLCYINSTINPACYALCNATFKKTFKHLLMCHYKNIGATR

[14] = system: KV channel; assay: In vitro CEREP profiling, KV channel (antagonist radioligand); type: binding; conditions: test compound concentration 10 uM
From the text: as §1

[15] = molecular target: T9, M3 (h) (Homo sapiens, UniProt P20309); assay: In vitro CEREP profiling, M3 (h) (antagonist radioligand); type: binding; conditions: test compound concentration 10 uM
T9 construct: purchased Eurofins Cerep (SafetyScreen44), recognised from the panel format
From the text: as §1

[16] = molecular target: T10, Potassium Channel hERG (human) (Homo sapiens, UniProt Q12809); assay: In vitro CEREP profiling, Potassium Channel hERG (human)- [3H] Dofetilide; type: binding; conditions: test compound concentration 10 uM
T10 construct: purchased Eurofins Cerep (SafetyScreen44), recognised from the panel format
T10 sequence (Q12809 whole entry): as the sequence (Q12809 whole entry) above
From the text: as §1

[17] = molecular target: T11, COX1(h) (Homo sapiens, UniProt P23219); assay: In vitro CEREP profiling, COX1(h); type: biochemical; conditions: test compound concentration 10 uM; Enzyme and Cell-based assays
T11 construct: purchased Eurofins Cerep (SafetyScreen44), recognised from the panel format
From the text: as §1

[18] = molecular target: T12, MAO-A (Rattus norvegicus, UniProt P21396); assay: In vitro CEREP profiling, MAO-A (antagonist radioligand); type: binding; conditions: test compound concentration 10 uM
T12 construct: purchased Eurofins Cerep (SafetyScreen44), recognised from the panel format
T12 sequence (P21396 1-526): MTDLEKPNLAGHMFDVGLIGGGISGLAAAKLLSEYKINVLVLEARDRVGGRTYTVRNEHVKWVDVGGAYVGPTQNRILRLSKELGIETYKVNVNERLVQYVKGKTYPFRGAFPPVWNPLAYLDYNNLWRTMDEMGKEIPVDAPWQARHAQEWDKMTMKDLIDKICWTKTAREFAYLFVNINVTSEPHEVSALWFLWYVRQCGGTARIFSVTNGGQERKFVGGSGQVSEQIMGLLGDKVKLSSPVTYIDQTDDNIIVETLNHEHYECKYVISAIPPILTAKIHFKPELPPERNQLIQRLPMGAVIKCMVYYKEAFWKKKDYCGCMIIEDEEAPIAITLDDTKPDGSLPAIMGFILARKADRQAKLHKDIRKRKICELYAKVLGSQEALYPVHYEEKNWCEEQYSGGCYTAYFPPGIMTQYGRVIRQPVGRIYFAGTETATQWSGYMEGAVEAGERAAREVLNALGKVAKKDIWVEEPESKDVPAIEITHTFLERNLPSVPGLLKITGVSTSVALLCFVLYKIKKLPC
From the text: as §1

Q: Which “perc_inhibition: % inhibition of control enzyme activity, PDE3A (h)” value [1] does the source give for COc1ccc([C@H](Cc2nnn[nH]2)NC(=O)c2ncnc3[nH]ccc23)cc1 [ASAP-0015381] here?
A: Its value is 62%.

Q: And the “perc_inhibition (% inhibition of the binding of a ligand specific for each target)” value [2]?
A: Its value is -30%.

Q: And the clint [3]?
A: The clint was < 3.0 uL/min/1E6 cells.

Q: What about the t_half [3] of the same compound?
A: Its t_half is > 231.0 min.

Q: And the CC50 at 24 h [4]?
A: Its CC50 at 24 h is > 20 µM.

Q: What about the “perc_inhibition (% inhibition of the binding of a ligand specific for each target)” value [5] of the same compound?
A: Its value is -4%.

Q: And the “perc_inhibition (% inhibition of the binding of a ligand specific for each target)” value [6]?
A: Its value is -7%.

Q: What about the “perc_inhibition (% inhibition of the binding of a ligand specific for each target)” value [7] of the same compound?
A: Its value is -18%.

Q: What about the “perc_inhibition (% inhibition of the binding of a ligand specific for each target)” value [8] of the same compound?
A: Its value is -3%.

Q: What about the “perc_inhibition (% inhibition of the binding of a ligand specific for each target)” value [9] of the same compound?
A: The value was -24%.

Q: And the perc_inhibition_top_conc ([10]; at top test concentration 30 uM)?
A: The perc_inhibition_top_conc was 27.0%.

Q: And the IC50 ([10]; top test concentration 30 uM)?
A: The IC50 was > 30 µM.

Q: What about the “perc_inhibition (% inhibition of the binding of a ligand specific for each target)” value [11] of the same compound?
A: The value was 9%.

Q: And the “perc_inhibition (% inhibition of the binding of a ligand specific for each target)” value [12]?
A: The value was -6%.

Q: What about the “perc_inhibition (% inhibition of the binding of a ligand specific for each target)” value [13] of the same compound?
A: Its value is -12%.

Q: And the “perc_inhibition (% inhibition of the binding of a ligand specific for each target)” value [14]?
A: The value was -1%.

Q: What about the “perc_inhibition (% inhibition of the binding of a ligand specific for each target)” value [15] of the same compound?
A: The value was -15%.

Q: What about the “perc_inhibition (% inhibition of the binding of a ligand specific for each target)” value [16] of the same compound?
A: The value was 5%.

Q: And the “perc_inhibition: % inhibition of control enzyme activity, COX1(h)” value [17]?
A: The value was 17%.

Q: What about the “perc_inhibition (% inhibition of the binding of a ligand specific for each target)” value [18] of the same compound?
A: Its value is 0%.
